From PubChem BioAssay (NCI)
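Following 48 hours of exposure in 96-well plates, responses at five concentrations were used to interpolate endpoints linearly. The concentration for 50% growth inhibition is given as GI50. TGI is the concentration that stops growth completely.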

How the values were obtained:
Experiment in all cases: NCI-60 cell line screen, 48 h
[1] = system: BT-549 breast
[2] = system: KM12 colon
[3] = system: HL-60(TB) leukemia
[4] = system: SN12C renal
[5] = system: EKVX NSCLC
[6] = system: A498 renal
[7] = system: UO-31 renal
[8] = system: PC-3 prostate
[9] = system: NCI-H522 lung
[10] = system: SR leukemia
[11] = system: HS 578T breast
[12] = system: LXFL 529 NSCLC
[13] = system: DMS 273 small cell lung
[14] = system: NCI-H460 lung
[15] = system: XF 498 CNS
[16] = system: OVCAR-8 ovarian
[17] = system: UACC-257 melanoma
[18] = system: A549 NSCLC
[19] = system: OVCAR-3 ovarian
[20] = system: KM20L2 colon
[21] = system: SF-539 CNS
[22] = system: SNB-19 CNS
[23] = system: SK-OV-3 ovarian
[24] = system: HOP-92 NSCLC
[25] = system: MDA-MB-231 breast
[26] = system: U251 CNS
[27] = system: 786-0 renal
[28] = system: RXF-631 renal
[29] = system: SK-MEL-5 melanoma
[30] = system: MCF7 breast
[31] = system: HOP-18 NSCLC
[32] = system: SF-268 CNS
[33] = system: M14 melanoma
[34] = system: K-562 leukemia
[35] = system: SW-620 colon
[36] = system: NCI/ADR-RES ovarian
[37] = system: ACHN renal
[38] = system: HT29 colon
[39] = system: SNB-78 CNS
[40] = system: OVCAR-4 ovarian
[41] = system: SK-MEL-2 melanoma
[42] = system: DLD-1 colon
[43] = system: DMS 114 small cell lung
[44] = system: T-47D breast
[45] = system: SF-295 CNS
[46] = system: HCC-2998 colon
[47] = system: SNB-75 CNS
[48] = system: CCRF-CEM leukemia
[49] = system: HOP-62 NSCLC
[50] = system: COLO 205 colon
[51] = system: HCT-116 colon
[52] = system: MOLT-4 leukemia
[53] = system: CAKI-1 renal
[54] = system: MALME-3M melanoma
[55] = system: IGROV1 ovarian
[56] = system: LOX IMVI melanoma
[57] = system: MDA-MB-435
[58] = system: RPMI-8226 leukemia
[59] = system: UACC-62 melanoma
[60] = system: HCT-15 colon
[61] = system: DU-145 prostate
[62] = system: TK-10 renal
[63] = system: OVCAR-5 ovarian
[64] = system: RXF 393 renal
[65] = system: NCI-H23 lung
[66] = system: SK-MEL-28 melanoma
[67] = system: M19-MEL melanoma
[68] = system: NCI-H226 lung

Nc1[nH]c(=O)nc2c1cnn2Cc1ccccc1
GI50 [1]: 36.2 µM
TGI [1]: > 100 µM
TGI [2]: > 100 µM
TGI [3]: > 100 µM
TGI [4]: > 100 µM
TGI [5]: > 100 µM
TGI [6]: > 100 µM
TGI [7]: > 100 µM
GI50 [8]: > 100 µM
TGI [8]: > 100 µM
GI50 [9]: > 100 µM
TGI [9]: > 100 µM
TGI [10]: > 100 µM
GI50 [11]: > 100 µM
TGI [11]: > 100 µM
TGI [12]: > 100 µM
TGI [13]: > 100 µM
TGI [14]: > 100 µM
TGI [15]: > 100 µM
TGI [16]: > 100 µM
TGI [17]: > 100 µM
TGI [18]: > 100 µM
GI50 [19]: > 100 µM
TGI [19]: > 100 µM
TGI [20]: 3.05 µM
TGI [21]: > 100 µM
TGI [22]: > 100 µM
GI50 [23]: > 100 µM
TGI [23]: > 100 µM
TGI [24]: > 100 µM
GI50 [25]: > 100 µM
TGI [25]: > 100 µM
TGI [26]: 2.73 µM
GI50 [27]: > 100 µM
TGI [27]: > 100 µM
TGI [28]: > 100 µM
TGI [29]: > 100 µM
GI50 [30]: > 100 µM
TGI [30]: > 100 µM
TGI [31]: > 100 µM
TGI [32]: > 100 µM
TGI [33]: > 100 µM
TGI [34]: > 100 µM
TGI [35]: > 100 µM
GI50 [36]: > 100 µM
TGI [36]: > 100 µM
TGI [37]: > 100 µM
TGI [38]: > 100 µM
TGI [39]: 3.08 µM
TGI [40]: > 100 µM
TGI [41]: > 100 µM
TGI [42]: > 100 µM
TGI [43]: > 100 µM
GI50 [44]: > 100 µM
TGI [44]: > 100 µM
TGI [45]: > 100 µM
GI50 [46]: > 100 µM
TGI [46]: > 100 µM
TGI [47]: > 100 µM
TGI [48]: > 100 µM
GI50 [49]: > 100 µM
TGI [49]: > 100 µM
TGI [50]: > 100 µM
TGI [51]: > 100 µM
TGI [52]: > 100 µM
TGI [53]: > 100 µM
TGI [54]: > 100 µM
TGI [55]: > 100 µM
TGI [56]: > 100 µM
GI50 [57]: > 100 µM
TGI [57]: > 100 µM
TGI [58]: > 100 µM
GI50 [59]: > 100 µM
TGI [59]: > 100 µM
TGI [60]: > 100 µM
GI50 [61]: > 100 µM
TGI [61]: > 100 µM

C[Si]1(C)C(c2ccccc2)=CC2C(c3ccccc3)(c3ccccc3)OC21c1ccccc1 (stereo not given)
TGI [2]: > 100 µM
TGI [3]: > 100 µM
TGI [4]: > 100 µM
TGI [5]: > 100 µM
TGI [6]: > 100 µM
TGI [7]: > 100 µM
TGI [9]: > 100 µM
TGI [10]: > 100 µM
TGI [62]: > 100 µM
TGI [12]: > 100 µM
TGI [63]: > 100 µM
TGI [13]: > 100 µM
TGI [64]: > 100 µM
TGI [14]: > 100 µM
TGI [15]: > 100 µM
TGI [17]: > 100 µM
TGI [18]: > 100 µM
TGI [19]: > 100 µM
TGI [20]: > 100 µM
TGI [21]: > 100 µM
TGI [22]: > 100 µM
TGI [23]: > 100 µM
TGI [24]: > 100 µM
TGI [26]: > 100 µM
TGI [27]: > 100 µM
TGI [28]: > 100 µM
TGI [65]: > 100 µM
TGI [29]: > 100 µM
TGI [31]: > 100 µM
TGI [32]: > 100 µM
TGI [33]: > 100 µM
TGI [66]: > 100 µM
TGI [34]: > 100 µM
TGI [67]: > 100 µM
TGI [35]: > 100 µM
TGI [37]: > 100 µM
TGI [38]: > 100 µM
TGI [40]: > 100 µM
TGI [41]: > 100 µM
TGI [42]: > 100 µM
TGI [68]: > 100 µM
TGI [43]: > 100 µM
TGI [45]: > 100 µM
TGI [46]: > 100 µM
TGI [47]: > 100 µM
TGI [48]: > 100 µM
TGI [49]: > 100 µM
TGI [50]: > 100 µM
TGI [51]: > 100 µM
TGI [52]: > 100 µM
TGI [53]: > 100 µM
TGI [54]: > 100 µM
TGI [55]: > 100 µM
TGI [56]: > 100 µM
TGI [58]: > 100 µM
TGI [59]: > 100 µM
TGI [60]: > 100 µM

Cc1ccc(NC(=O)CC/C(CC(=O)C(C)(C)C)=N/Nc2nnc(C)n2N)cc1C
TGI [2]: > 100 µM
TGI [3]: > 100 µM
TGI [4]: > 100 µM
TGI [5]: > 100 µM
TGI [6]: > 100 µM
TGI [7]: > 100 µM
TGI [9]: > 100 µM
TGI [10]: > 100 µM
TGI [62]: > 100 µM
TGI [12]: > 100 µM
TGI [63]: > 100 µM
TGI [13]: > 100 µM
TGI [64]: > 100 µM
TGI [14]: > 100 µM
TGI [15]: > 100 µM
TGI [16]: > 100 µM
TGI [17]: > 100 µM
TGI [18]: > 100 µM
TGI [19]: > 100 µM
TGI [20]: > 100 µM
TGI [21]: > 100 µM
TGI [22]: > 100 µM
TGI [23]: > 100 µM
TGI [24]: > 100 µM
TGI [26]: > 100 µM
TGI [27]: > 100 µM
TGI [28]: > 100 µM
TGI [65]: > 100 µM
TGI [29]: > 100 µM
TGI [31]: > 100 µM
TGI [32]: > 100 µM
TGI [33]: > 100 µM
TGI [66]: > 100 µM
TGI [34]: > 100 µM
TGI [67]: > 100 µM
TGI [35]: > 100 µM
TGI [37]: > 100 µM
TGI [38]: > 100 µM
TGI [39]: > 100 µM
TGI [41]: > 100 µM
TGI [68]: > 100 µM
TGI [43]: > 100 µM
TGI [45]: > 100 µM
TGI [46]: > 100 µM
TGI [47]: > 100 µM
TGI [48]: > 100 µM
TGI [49]: > 100 µM
TGI [50]: > 100 µM
TGI [51]: > 100 µM
TGI [52]: > 100 µM
TGI [53]: > 100 µM
TGI [54]: > 100 µM
TGI [55]: > 100 µM
TGI [56]: > 100 µM
TGI [58]: > 100 µM
TGI [59]: > 100 µM
TGI [60]: > 100 µM

Cc1ccc(Nc2nc3c(s2)C(=O)c2ccccc2C3=O)cc1
TGI [2]: 3.44 µM
TGI [3]: 0.602 µM
TGI [4]: 3.4 µM
TGI [5]: 16 µM
TGI [6]: 30.9 µM
TGI [7]: 4.12 µM
TGI [9]: 3.25 µM
TGI [62]: 18.9 µM
TGI [12]: 3 µM
TGI [63]: 3.5 µM
TGI [13]: 3.75 µM
TGI [15]: 3.76 µM
TGI [16]: 5.07 µM
TGI [17]: 3.2 µM
TGI [18]: 4.86 µM
TGI [19]: 4.87 µM
TGI [20]: 38.9 µM
TGI [21]: 17.7 µM
TGI [22]: 3.33 µM
TGI [23]: 40.1 µM
TGI [24]: 14.3 µM
TGI [26]: 3.42 µM
TGI [27]: 3.37 µM
TGI [28]: 3.8 µM
TGI [65]: 4.33 µM
TGI [29]: 3.43 µM
TGI [31]: 3.19 µM
TGI [32]: 5.66 µM
TGI [33]: 3.25 µM
TGI [66]: 2.99 µM
TGI [34]: 7.19 µM
TGI [67]: 1.05 µM
TGI [37]: 3.21 µM
TGI [38]: 11.2 µM
TGI [39]: 5.82 µM
TGI [40]: 2.89 µM
TGI [41]: 3.94 µM
TGI [42]: 4.26 µM
TGI [68]: 33.9 µM
TGI [43]: 3.28 µM
TGI [45]: 2.99 µM
TGI [46]: 3.58 µM
TGI [47]: 5.03 µM
TGI [48]: 5.04 µM
TGI [49]: 20 µM
TGI [50]: 26.9 µM
TGI [52]: 3.83 µM
TGI [53]: 3 µM
TGI [54]: 3.39 µM
TGI [55]: 3.73 µM
TGI [56]: 3.11 µM
TGI [58]: 3.74 µM
TGI [59]: 3.92 µM
TGI [60]: 4.29 µM
